The source of these data is publication PMC10023787, “Trio-pharmacophore DNA-encoded chemical library for simultaneous selection of fragments and linkers” (Nature Communications, 2023).

Like-named read-outs stand apart in the source and are kept apart here.

One experiment addresses T1, MMP-9 (Homo sapiens, UniProt P14780).
T1 construct: purchased Sino Biological 10327-HNAH
In words: MMP-9 inhibition assay (fluorogenic peptide substrate). The note with it: for IC50: mean ± SE, n.d: not detected, Fig. 5e prints no unit, µM, read-out: IC50. The format is biochemical. In outline:
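Hydrolysis of DNP-Pro-Leu-Gly-Met-Trp-Ser-Arg (25 μM final) was tracked kinetically at em 360 nm over 30 min. Enzymes, APMA-activated and at 10 nM (MMP-9) or 6.5 nM (MMP-2) final, sat 30 min at RT with inhibitor in pH 7.5 Tris buffer with CaCl2 and Brij 35 first. Logistic fitting of Vmax against concentration gave IC50, in triplicate.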

The target in a further experiment is T2, MMP-2 (Homo sapiens, UniProt P08253).
T2 construct: purchased Sino Biological 10082-HNAH
T2 sequence (P08253 110-660): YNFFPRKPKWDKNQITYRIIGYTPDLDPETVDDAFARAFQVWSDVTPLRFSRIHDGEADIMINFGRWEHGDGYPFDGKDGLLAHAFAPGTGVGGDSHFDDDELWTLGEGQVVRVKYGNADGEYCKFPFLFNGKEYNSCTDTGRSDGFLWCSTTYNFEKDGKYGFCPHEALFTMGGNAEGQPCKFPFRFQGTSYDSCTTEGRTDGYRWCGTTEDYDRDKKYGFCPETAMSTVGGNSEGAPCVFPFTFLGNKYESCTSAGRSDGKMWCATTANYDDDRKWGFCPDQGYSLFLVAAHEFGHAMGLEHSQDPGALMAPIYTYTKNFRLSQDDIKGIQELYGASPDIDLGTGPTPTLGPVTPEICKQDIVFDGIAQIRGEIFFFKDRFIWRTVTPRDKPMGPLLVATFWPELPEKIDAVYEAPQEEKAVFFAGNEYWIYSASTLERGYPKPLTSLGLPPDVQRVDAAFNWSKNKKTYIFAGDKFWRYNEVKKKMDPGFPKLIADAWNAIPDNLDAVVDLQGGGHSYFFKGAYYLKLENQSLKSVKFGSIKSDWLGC
In words: De novo T-DEL selection against MMP-2, NGS decoding. The experiment is classed as binding. The text has this: Matrix metalloproteinases (MMPs) are zinc-dependent endopeptidases capable of degrading and remodeling extracellular matrix components[46],[47]. They are attractive therapeutic targets as high expression levels were detected in various diseases, such as inflammatory diseases, and at different stages of cancers, including metastasis, invasion, and angiogenesis[47]–[53]. As shown in Supplementary Fig. 3c, we performed selections against the two gelatinases (human MMP-2 and human MMP-9) to identify binding fragments for later design and synthesis of small molecule inhibitors. After selection, the three sub-libraries were decoded, and the enrichment was calculated by dividing the post-selection fraction (count/total counts) by the pre-selection fraction (Fig. 4a and Supplementary Fig. 13).
4 µg of MMP-2/MMP-9 was dissolved in 100 µl of selection buffer containing 25 mM Tris-base, 10 mM CaCl2, 150 mM NaCl, 0.05% Tween 20, pH 7.5. 10 µl of 4-Aminophenylmercuric acetate (APMA) (100 mM) solution was added to the protein solution and incubated at 37 °C for 1 h. After activation, the solution was added on top of 40 µl pre-washed Ni-NTA resin and incubated for 30 min on a rotary shaker. The supernatant was discarded, and the resin was washed three times with the selection buffer.
For each independent selection, three sub-libraries were mixed in the selection buffer with a final concentration of 40 nM of each sub-library in 100 µl. The mixture was heat denatured at 90 °C for 1 min and slowly cooled down to allow the formation of the trio-pharmacophore library. The dynamic dual-pharmacophore DEL was provided by DyNAbind GmbH (Merck, DYNA001).
The assembled library was incubated with the protein-bound solid support for 2 h at RT on a rotary shaker. In parallel, selection on bare solid support served as the negative control to exclude promiscuous binders on the resin. After panning, the supernatant was discarded, and the resin was washed three times with 1 ml selection buffer. Finally, 100 µl of 50 mM Tris buffer, pH 7.4 was added to resuspend the resin and the resin was incubated at 95 °C for 5 min to denature the protein, release, and collect the bound library members.
The eluted library members were subjected to sample preparation for NGS. NGS preparation was achieved by two-step PCR. First, the individual selection was indexed using primers containing unique sequences corresponding to each selection. The amplified product was purified from 2% agarose gel. Second, the purified DNA from all selections were pooled in equal amount and subjected to the 2nd PCR step to attach sequences compatible with the NGS flow cell and the sequencing primers. NGS was performed by Novogene UK with Novaseq 6000. Raw data files (fastq files) obtained were decoded using a custom python script and excel. The sequence reads corresponding to each sample was retrieved by searching for the correct index unique to each selection. Then, the code region was extracted from each sequence and assigned to the corresponding identity. The count of each code in each selection sample was obtained by looping through the total reads and counting the occurrence of each code. The enrichment fold of each compound was calculated by first, dividing the count by the total count to get the abundance, second, the abundance after the selection was divided by the abundance of pre-selection to reflect the distribution change of the compound. Next, the enrichment fold was plotted against the count for each member of the library to give the scatter plots as in Fig. 4.

T1 sequence (P14780 107-707 limits assumed): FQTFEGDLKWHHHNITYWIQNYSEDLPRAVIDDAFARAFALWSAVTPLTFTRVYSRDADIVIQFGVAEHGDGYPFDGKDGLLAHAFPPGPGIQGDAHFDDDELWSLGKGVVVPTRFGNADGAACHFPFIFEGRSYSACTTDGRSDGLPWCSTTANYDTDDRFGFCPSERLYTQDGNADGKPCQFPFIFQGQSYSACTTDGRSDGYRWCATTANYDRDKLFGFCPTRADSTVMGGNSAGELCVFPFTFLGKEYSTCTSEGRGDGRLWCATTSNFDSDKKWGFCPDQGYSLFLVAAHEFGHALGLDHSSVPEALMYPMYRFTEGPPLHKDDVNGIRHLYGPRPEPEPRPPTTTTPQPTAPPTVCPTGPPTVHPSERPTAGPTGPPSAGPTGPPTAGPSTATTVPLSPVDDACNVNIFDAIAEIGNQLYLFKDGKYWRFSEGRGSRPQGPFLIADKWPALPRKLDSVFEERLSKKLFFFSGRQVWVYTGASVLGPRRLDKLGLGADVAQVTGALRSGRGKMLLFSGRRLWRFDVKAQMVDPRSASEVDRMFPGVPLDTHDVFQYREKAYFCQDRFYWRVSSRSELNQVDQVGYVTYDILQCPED

As for `Cc1cc(=O)[nH]c(-n2nc(C)c(CCC(=O)O)c2C)n1` [Compound 693], at MMP-9 (Figure 5b, fragment concentration 0.078016 µM, read-out: Normalized activity (Mean)), the remaining activity at 0.078016 µM is 99.9%. For the same molecule, the remaining activity at 0.39008 µM at MMP-9 (Figure 5b, fragment concentration 0.39008 µM, read-out: Normalized activity (Mean)) stood at 97%. The remaining activity at 1.9504 µM on MMP-9 (Figure 5b, fragment concentration 1.9504 µM, read-out: Normalized activity (Mean)) was 89.6%. Also, the remaining activity at 9.752 µM at MMP-9 (Figure 5b, fragment concentration 9.752 µM, read-out: Normalized activity (Mean)) amounted to 87.1%. The remaining activity at 48.76 µM turned out to be 91% on MMP-9 (Figure 5b, fragment concentration 48.76 µM, read-out: Normalized activity (Mean)) and 91% on MMP-9 (MMP-9, concentration 48.76 µM, read-out: Mean (MMP-9 dose-response, Supplementary fig 15)). For the same molecule, the remaining activity at 243.8 µM at MMP-9 (Figure 5b, fragment concentration 243.8 µM, read-out: Normalized activity (Mean)) came out at 37.1%; on MMP-9 (MMP-9, concentration 243.80 µM, read-out: Mean (MMP-9 dose-response, Supplementary fig 15)) it was 37.1%. The remaining activity at 1219 µM on MMP-9 (Figure 5b, fragment concentration 1219 µM, read-out: Normalized activity (Mean)) was determined as 6.67%; at MMP-9 (MMP-9, concentration 1219.00 µM, read-out: Mean (MMP-9 dose-response, Supplementary fig 15)) it was 6.67%. The remaining activity at 0.08 µM at MMP-9 (MMP-9, concentration 0.08 µM, read-out: Mean (MMP-9 dose-response, Supplementary fig 15)) was 99.9%. Moreover, the remaining activity at 0.39 µM on MMP-9 (MMP-9, concentration 0.39 µM, read-out: Mean (MMP-9 dose-response, Supplementary fig 15)) was found to be 97%. The remaining activity at 1.95 µM on MMP-9 (MMP-9, concentration 1.95 µM, read-out: Mean (MMP-9 dose-response, Supplementary fig 15)) amounted to 89.5%. The remaining activity at 9.75 µM on MMP-9 (MMP-9, concentration 9.75 µM, read-out: Mean (MMP-9 dose-response, Supplementary fig 15)) stood at 87.1%. On MMP-9 (in words), the inhibitory effect entry is on record as “high µM range”. For the same molecule, the concentration for half-maximal inhibition (IC50) (usually the midpoint of a concentration-inhibition curve) on MMP-9 came to 206 ± 25.4 µM. Besides, the “MMP2 SL-A Count” value on MMP-2 (NGS sequence count of sub-library SL-A building block, de novo T-DEL selection against MMP-2) is recorded as 3710. At MMP-2 (NGS sequence count of sub-library SL-C building block, de novo T-DEL selection against MMP-2), the “MMP2 SL-C Count” value is 1010. In addition, at MMP-2 (sub-library SL-A building block, de novo T-DEL selection against MMP-2), the “MMP2 SL-A Enrichment Fold” value was determined as 2.312. The “MMP2 SL-C Enrichment Fold” value on MMP-2 (sub-library SL-C building block, de novo T-DEL selection against MMP-2) is 1.213.

Consider `O=C(O)Cn1cnc2c(oc3ccccc32)c1=O` [Compound 182], for which the remaining activity at 0.062464 µM on MMP-9 (Figure 5b, fragment concentration 0.062464 µM, read-out: Normalized activity (Mean)) was 93.2%. Also, the remaining activity at 0.31232 µM at MMP-9 (Figure 5b, fragment concentration 0.31232 µM, read-out: Normalized activity (Mean)) was 98.5%. Also, the remaining activity at 1.5616 µM on MMP-9 (Figure 5b, fragment concentration 1.5616 µM, read-out: Normalized activity (Mean)) stood at 93.8%. In addition, the remaining activity at 7.808 µM at MMP-9 (Figure 5b, fragment concentration 7.808 µM, read-out: Normalized activity (Mean)) came out at 101%. Also, the remaining activity at 39.04 µM was found to be 52.9% at MMP-9 (Figure 5b, fragment concentration 39.04 µM, read-out: Normalized activity (Mean)) and 52.9% on MMP-9 (MMP-9, concentration 39.04 µM, read-out: Mean (MMP-9, Supplementary fig 16)). The remaining activity at 195.2 µM at MMP-9 (Figure 5b, fragment concentration 195.2 µM, read-out: Normalized activity (Mean)) stood at 20%; at MMP-9 (MMP-9, concentration 195.20 µM, read-out: Mean (MMP-9, Supplementary fig 16)) it was 21%. Besides, the remaining activity at 976 µM on MMP-9 (Figure 5b, fragment concentration 976 µM, read-out: Normalized activity (Mean)) stood at 0%; at MMP-9 (MMP-9, concentration 976.00 µM, read-out: Mean (MMP-9, Supplementary fig 16)), 0%. In addition, the remaining activity at 0.06 µM on MMP-9 (MMP-9, concentration 0.06 µM, read-out: Mean (MMP-9, Supplementary fig 16)) came out at 93.2%. Besides, the remaining activity at 0.31 µM on MMP-9 (MMP-9, concentration 0.31 µM, read-out: Mean (MMP-9, Supplementary fig 16)) amounted to 98.5%. For the same molecule, the remaining activity at 1.56 µM at MMP-9 (MMP-9, concentration 1.56 µM, read-out: Mean (MMP-9, Supplementary fig 16)) was 93.8%. In addition, at MMP-9 (MMP-9, concentration 7.81 µM, read-out: Mean (MMP-9, Supplementary fig 16)), the remaining activity at 7.81 µM came to 101%. Further, the IC50 at MMP-9 was 48.1 µM. At MMP-2 (NGS sequence count per SL-A member, de novo T-DEL selection against MMP-2 (Figure 4a source data)), the “MMP2 SL-A Count” value is listed as 3616. Moreover, the “MMP2 SL-C Count” value at MMP-2 (NGS sequence count per SL-C member, de novo T-DEL selection against MMP-2 (Figure 4a source data)) amounted to 971. The “MMP2 SL-A Enrichment Fold” value at MMP-2 (enrichment fold per SL-A member, de novo T-DEL selection against MMP-2 (Figure 4a source data)) was 1.934. For the same molecule, at MMP-2 (enrichment fold per SL-C member, de novo T-DEL selection against MMP-2 (Figure 4a source data)), the “MMP2 SL-C Enrichment Fold” value is recorded as 0.9721.
